Legend:
Details in all cases: 72 h
Caco-2 [1] = assay: relative viability EC50 (midpoint between 100% and the lowest measured viability); higher = less toxic
HepG2 [2] = assay: as above
U2OS [3] = assay: as above
Calu-3 [4] = assay: as above
Vero E6 [5] = assay: as above
Caco-2 [6] = assay: drug sensitivity score (DSS) for viability; higher = more toxic; extreme values may be limits of the assay
HepG2 [7] = assay: as above
U2OS [8] = assay: as above
Calu-3 [9] = assay: as above
Vero E6 [10] = assay: as above
Caco-2 [11] = assay: cell viability relative to DMSO; higher = less toxic
HepG2 [12] = assay: as above
U2OS [13] = assay: as above
Calu-3 [14] = assay: as above
Vero E6 [15] = assay: as above

COc1cc(Br)c(S(=O)(=O)Nc2ccc(Cl)c(O[C@@H]3CCN(C)C3)c2)cc1OC
Details | drug sensitivity score | relative viability EC50 [µM]
Caco-2 [1] | – | > 10
Caco-2 [6] | 0 | –
Calu-3 [4] | – | > 10
Calu-3 [9] | 0 | –
HepG2 [2] | – | 2.13
HepG2 [7] | 4.9 | –
U2OS [3] | – | > 10
U2OS [8] | 0 | –
Vero E6 [5] | – | > 10
Vero E6 [10] | 0 | –

cell viability [%]
Details | Caco-2 [11] | Calu-3 [14] | HepG2 [12] | U2OS [13] | Vero E6 [15]
1 nM | 104 | 80.8 | 97.6 | 95.2 | 101
10 nM | 93.7 | 99.2 | 98.3 | 97.4 | 93.6
100 nM | 99.7 | 90.3 | 106 | 88.5 | 96.1
1000 nM | 94.9 | 94.3 | 91.8 | 97.7 | 97.8
10000 nM | 90 | 85 | 36.3 | 95 | 108
